One data set deals with Cyno SORT1. Nature of the data set: SPR binding, Cyno SORT1. The conditions noted are these: unconjugated peptide w/conjugation handles. As to the method: SPR analysis was performed on Series S CM5 chips (Cytiva) using a Biacore 8K instrument (Cytiva). Sensorgrams were double-referenced by subtracting the response on both a reference flow cell and a blank sample. Human SORT1 (78-755)-His (Acrobiosystems), human SORT1 (78-755)-His(GenScript), mouse SORT1 (76-753)-His (R&D Systems), rat SORT1 (76-752)-His (GenScript), and cyno SORT1 (76-753)-His (GenScript) were diluted to 20-60 μg/mL in 10 mM sodium acetate pH 4.5 buffer and immobilized onto Series S CM5 chips using amine coupling at a flow rate of 10 μL/min for 45-100 s.
For the single-cycle kinetics analysis runs, a running buffer of 1×PBS pH 7.4, 0.005% Tween-20 was used. Ten start-up cycles and a blank cycle preceded each analysis run. […] The kinetic rate constants (ka and kd) and the equilibrium binding constant (Kd) were calculated using a 1:1 kinetic binding model on the Biacore Insight Evaluation Software (Cytiva).
SPR analysis was performed on Series S CM5 chips (Cytiva) using a Biacore 8K instrument (Cytiva). […] The kinetic rate constants (ka and […]) and the equilibrium binding constant (Kd) were calculated using a 1:1 kinetic binding model on the Biacore Insight Evaluation Software (Cytiva). […] The SORT1 affinities of the conjugates were determined to be peptide 2 conjugate >peptide 1 conjugate >peptide 3 conjugate.

Another data set relates to MDA-MB-231 xenograft. Nature of the data set: MDA-MB-231 murine xenograft efficacy model. Format: in vivo, mouse. The method, then: Murine xenograft experiments were conducted at WuXi AppTec and/or Charles River Laboratories and the care and use of animals was conducted in accordance with the regulations of the Association for Assessment and Accreditation of Laboratory Animal Care (AAALAC). MDA-MB-231 tumor cells (ATCC, Manassas, VA, cat #HTB-26) were grown and maintained in L15 medium supplemented with 10% heat inactivated fetal bovine serum, 1% Antibiotic-Antimycotic, and L-glutamine (2 mM) at 37° C. in an atmosphere in 5% CO2, 95% air. BALB/c Nude, female, 6-8 weeks, weighing approximately 18-22 g were purchased from Vital River Laboratory Animal Technology Co., LTD. Mice were inoculated subcutaneously at the right flank with MDA-MB-231 tumor cells (e.g., triple negative breast cancer cells) (10×10^6) in 0.2 mL of PBS with Matrigel (1:1) for tumor development. Animals were randomized and treatment was started when the average tumor volume reached approximately 150-200 mm^3 for the efficacy study. Dosing volume was adjusted based on body weight and was administered at 10 mL/Kg. […] Free MMAE payload was also tested, and similarly dissolved in 25 mM Histidine 10% sucrose pH 7 and one or more of the following doses, 0.6, 0.06 mg/kg, were administered to the mice i.v. at a QW×4 schedule. Tumor sizes were measured twice weekly in two dimensions using a caliper, and the volume in mm^3 calculated using the formula: V=0.5 a×b^2, where a and b are the long and short diameters of the tumor, respectively. TGI was calculated for each group using the formula: TGI (%)=[1−(Ti−T0)/(Vi−V0)]×100; where Ti is the average tumor volume of a treatment group on a given day, TO is the average tumor volume of the treatment group on the first day of treatment, Vi is the average tumor volume of the vehicle control group on the same day with Ti, and V0 is the average tumor volume of the vehicle group on the first day of treatment.
To characterize the effects of the MMAE payload alone, we included free MMAE at molar equivalency to PDCs, and tested at 0.6 and 0.06 mg/kg, as separate arms.
To characterize the effects of the MMAE payload alone, we included free MMAE at molar equivalency to PDCs, and tested at 0.6 mg/kg.

Data set [1] in a line: Murine plasma stability assay. The data set is classed as in vitro ADME. The conditions noted are these: mouse, 2 μM, 37° C., read-out: Murine plasma stability assay, T1/2. As to the method:
Frozen plasma was thawed at 37° C. and centrifuged at 4000 rpm to remove any clots and transferred to 96-well reaction plates by WuXi AppTec. Test compounds were added to the reaction plate at a final concentration of 2 μM and either stopped immediately or incubated at 37° C. for 5 minutes, 10 minutes, 30 minutes, 60 minutes, or 120 minutes. At the end of incubation, stop solution consisting of 200 ng/mL tolbutamide and 200 ng/mL labetalol in ACN was added to precipitate protein and mixed thoroughly. Samples were then transferred to a bioanalysis plate and shaken for 10 minutes prior to HPLC-MS/MS analysis of percent remaining compound.
Table 14 tabulates the plasma stability for each of the three PDCs tested.

A short description of data set [2]: Murine hematotoxicity assay. Format: in vivo, mouse. The following applies: 3 mg/kg i.v. QW×4, BALB/c mice. As to the method:
(§1) Murine hematotoxicity experiments were conducted at Charles River Laboratories and the care and use of animals was conducted in accordance with the regulations of the Association for Assessment and Accreditation of Laboratory Animal Care (AAALAC). Wild type BALB/c, female, 7-8 weeks, weighing approximately 18-22 g were randomized and dosed intravenously with control or test articles at a QW×4 schedule. Dosing volume was adjusted based on body weight and was administered at 10 mL/Kg. PDCs were dissolved in 25 mM Histidine 10% sucrose pH 7 and 3 mg/kg was administered. Free MMAE payload was also tested, and similarly dissolved in 25 mM Histidine 10% sucrose pH 7 and administered to the mice at a dose of […] by i.v. injection at a QW×4 schedule. 3 days following each dose, 150 μL of whole blood was collected via submandibular method and placed in K2 EDTA tubes stored on ice. Blood neutrophil counts were performed on the day of collection by IDEXX labs. Body weights were recorded twice a week until study endpoint.
as §1, with “As outlined in the material” for “Murine hematotoxicity experiments were conducted at Charles River Laboratories”, “methods” for “the care and use”, “Example 1, wild” for “animals was conducted in accordance with the regulations of the Association for Assessment and Accreditation of Laboratory Animal Care (AAALAC). Wild”, “PDCs were dissolved in 25 mM Histidine 10% sucrose pH 7 and 3 mg/kg was administered.” left out

Data set [3] deals with GAPDH mRNA. Nature of the data set: GAPDH mRNA knockdown in HEK293 cells (RT-qPCR). The data set is classed as cell-based. The method, then: (§2) These GAPDH siRNA-peptide conjugates were then evaluated in HEK293 cells and the neuronal cell line, neuro2A.
Data set [4] deals with GAPDH mRNA. Nature of the data set: GAPDH mRNA knockdown in differentiated Neuro-2a cells (RT-qPCR). Format: cell-based. As to the method:
as §2
A general note: In qPCR the cycle at which signal appears reflects the starting amount.

Data set [5] has as its target T1, SORT1 (Sortilin), Acrobiosystems SON-H52H5 (human, UniProt Q99523 78-755, biotinylated 1:1 with NHS-PEG4 Biotin when immobilised in the protein-loaded GCI format).
T1 construct: Used in FP, GCI and the peptide microarray; also called SORT1-Ag; SORT1 antigen
T1 sequence (looked up): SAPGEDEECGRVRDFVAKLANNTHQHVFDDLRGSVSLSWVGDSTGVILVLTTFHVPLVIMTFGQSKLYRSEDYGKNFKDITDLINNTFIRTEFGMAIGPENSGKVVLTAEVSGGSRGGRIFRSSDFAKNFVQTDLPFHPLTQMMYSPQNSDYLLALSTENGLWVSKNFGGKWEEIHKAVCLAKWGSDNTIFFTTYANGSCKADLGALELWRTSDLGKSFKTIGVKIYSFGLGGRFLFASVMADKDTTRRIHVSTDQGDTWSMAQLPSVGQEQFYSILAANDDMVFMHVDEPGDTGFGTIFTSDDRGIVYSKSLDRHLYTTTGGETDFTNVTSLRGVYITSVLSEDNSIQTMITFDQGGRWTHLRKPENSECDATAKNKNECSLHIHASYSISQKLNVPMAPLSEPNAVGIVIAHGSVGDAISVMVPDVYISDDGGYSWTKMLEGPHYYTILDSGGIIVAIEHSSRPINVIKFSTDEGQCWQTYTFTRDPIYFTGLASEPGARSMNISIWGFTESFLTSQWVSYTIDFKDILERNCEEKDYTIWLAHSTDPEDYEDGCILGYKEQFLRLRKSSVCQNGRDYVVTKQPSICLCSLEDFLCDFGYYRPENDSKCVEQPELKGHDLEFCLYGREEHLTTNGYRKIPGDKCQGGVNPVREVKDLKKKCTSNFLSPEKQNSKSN
The experiment in a line: fluorescence polarization, direct titration of the FAM-labelled peptide with SORT1. (Fluorescence polarisation rises when a labelled molecule tumbles more slowly, as on binding a larger partner.)
Protocol: A 12-point, two-fold dilution series of target protein was prepared in a V-bottom 96-well plate for a total volume of 25 μL.
A 10× working solution of FAM-labeled peptides was prepared in the FP buffer (1×PBS, pH 7.4, 0.1% Tween-20). An aliquot of 2.5 μL of the 10× working solution of the FAM-labeled peptides was then added to 22.5 μL of the SORT1 dilution series and pipetted to mix in a V-bottom 96-well plate. A negative control with no target protein was also prepared to assess baseline polarization of the FAM-labeled peptides. […] The data was then fitted to a One Site-Specific Binding curve in GraphPad to calculate the KD.

This is an account of results in patent publication US20260183411A1, “TARGETING SORTILIN” (priority 2024, published 2026).

Where a SMILES comes first, the peptide text is derived from it.

For `CC(C)C[C@H](NC(=O)[C@H](C)NC(=O)[C@@H]1CCCN1C(=O)[C@H](CC(=O)O)NC(=O)[C@H](CCCNC(=N)N)NC(=O)[C@H](CC(C)C)NC(=O)[C@@H]1CCCN1C(=O)[C@H](C)NC(=O)[C@H](CC(=O)O)NC(=O)[C@H](Cc1c[nH]c2ccccc12)NC(=O)[C@H](CCCNC(=N)N)NC(=O)[C@@H]1CCCN1C(=O)[C@H](C)N)C(=O)N[C@@H](CCCNC(=N)N)C(=O)N[C@@H](CCC(N)=O)C(=O)N[C@H](C(=O)N[C@@H](CC1CCC1)C(=O)O)C(C)(C)C` [SORT1 peptide 2], on Cyno SORT1, the “Cyno Ka Kd” value came out at 152 pM.

In the case of `CCCC[C@@H]1NC(=O)[C@H](CCCNC(=N)N)NC(=O)[C@H](CCCCNC(=O)CN(C)C(=O)CN(C)C(=O)CN(C)C(=O)CN(C)C(=O)CCNC(=O)CCCC(=O)N[C@H](C(=O)N[C@@H](CCCNC(N)=O)C(=O)Nc2ccc(COC(=O)N(C)[C@H](C(=O)N[C@H](C(=O)N(C)[C@@H]([C@@H](C)CC)[C@@H](CC(=O)N3CCC[C@H]3[C@H](OC)[C@@H](C)C(=O)N[C@H](C)[C@@H](O)c3ccccc3)OC)C(C)C)C(C)C)cc2)C(C)C)NC(=O)[C@H](CC(N)=O)NC(=O)[C@H](CCC(=O)O)NC(=O)[C@@H](NC(=O)[C@H](Cc2c[nH]c3ccccc23)NC(=O)[C@H](CCCNC(=N)N)NC(C)=O)CSSC[C@@H](C(=O)N[C@@H](CCCNC(=N)N)C(=O)N[C@@H](CCC(N)=O)C(=O)N[C@H](C(=O)N[C@@H](CC(C)(C)C)C(=O)O)C(C)(C)C)NC(=O)[C@H]([C@@H](C)O)NC(=O)[C@H](Cc2ccccc2)NC1=O` [Arb_cyclic_G23-PDC], in the data set on MDA-MB-231 xenograft (3 mg/kg i.v. QW×4, day 22), the “tumor growth inhibited relative to vehicle” value was determined as 68%. For the same molecule, the “body weight loss (Example 8)” value in the data set with MDA-MB-231 xenograft (PDCs 3 mg/kg, free MMAE at molar equivalency (0.6 mg/kg)) is “body weight loss tracked each other”. Besides, the half-life in data set [1] amounted to 57.4 min. Besides, in data set [2], the “blood neutrophil counts compared to vehicle or MMAE treatment” value was “reduced neutrophil counts”.

On to `CCCC[C@@H]1NC(=O)[C@H](CCCNC(=N)N)NC(=O)[C@H](CCCCN)NC(=O)[C@H](CC(N)=O)NC(=O)[C@H](CCC(=O)O)NC(=O)[C@@H](NC(=O)[C@H](Cc2c[nH]c3ccccc23)NC(=O)[C@H](CCCNC(=N)N)NC(C)=O)CSSC[C@@H](C(=O)N[C@@H](CCCNC(=N)N)C(=O)N[C@@H](CCC(N)=O)C(=O)N[C@H](C(=O)N[C@@H](CC(C)(C)C)C(=O)O)C(C)(C)C)NC(=O)[C@H]([C@@H](C)O)NC(=O)[C@H](Cc2ccccc2)NC1=O` [SORT1 peptide 3] (HELM PEPTIDE1{[ac].R.W.C.E.N.K.R.[Nle].F.T.C.R.Q.[CC(C)(C)[C@H](N[*:1])C(=O)[*:2]].[CC(C)(C)C[C@H](N[*:1])C(=O)O]}$PEPTIDE1,PEPTIDE1,4:R3-12:R3$$$V2.0; N-terminus and C-terminus assumed), for which the “Cyno Ka Kd” value on Cyno SORT1 was determined as 191 pM.

“Ac-C(bAla)(Sar)(Sar)(Sar)(Sar)APRWDAPLRDPALRQ(B13)(G48) (CXXXXXAPRWDAPLRDPALRQXX; N-methyl; non-natural residues; cyclised or stapled) [Peptide 2-GAPDH6-SPDP]”: the “GAPDH mRNA % knockdown compared to untreated cells” value in the data set on GAPDH mRNA [3] (HEK293 + CQ) is 80%; in the data set on GAPDH mRNA [3] (HEK293 − CQ (chloroquine)), 0%; in the data set on GAPDH mRNA [4] (Neuro2a + CQ) it was 0%; with GAPDH mRNA [4] (Neuro2a − CQ) it was 3%.

For {FAM}-QRLARLPRDLLAWPPAD-OH (also called negative control peptide) [PRGN_scr], the binding result in data set [5] is given as “no binding”.
